Where two headings read alike, the source gives them in different places.
Columns and labels:
GlnBP [1] = settings: cited from earlier work
GlnBP [2] = tested on: GlnBP; parameters: method as in Berntsson et al., 2010; settings: numerical fits of stopped-flow relaxation curves, Gln:GlnBP 1:1 and 2:1; ref Berntsson et al., 2010; cited from earlier work
GlnBP(59 C-130C) = target: T1, GlnBP(59 C-130C) (Escherichia coli, UniProt P0AEQ3, T152C/T81C); experiment: ITC of ligand binding to refolded, unlabeled GlnBP(59C-130C)
T1 construct: made in house; host or cells: E. coli BL21-pLysS
T1 sequence (P0AEQ3 23-248 T81C/T152C): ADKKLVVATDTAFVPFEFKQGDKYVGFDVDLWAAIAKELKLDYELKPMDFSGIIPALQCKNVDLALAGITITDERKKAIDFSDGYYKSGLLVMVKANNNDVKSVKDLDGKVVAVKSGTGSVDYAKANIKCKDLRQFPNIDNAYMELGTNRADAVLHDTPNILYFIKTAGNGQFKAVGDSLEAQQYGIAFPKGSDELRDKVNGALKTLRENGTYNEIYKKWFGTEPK
Method: (§1) The ITC measurements were performed in a MicroCal PEAQ-ITC isothermal titration calorimeter (Malvern Instruments). The prediction ITC software ‘MicroCal PEAQ-ITC Control’ was employed for designing and conducting the experiments. Once the Kd value and the binding stoichiometry (N) were assigned as predefined values, the concentration of both the protein and the titrant (ligand) stock solutions could be calculated by the ‘design-experiment’ function on the software to get an optimal sigmoidal one-site binding curve. GlnBP concentration was assessed using the Nanophotometer (N60 Touch, Implen GmbH) with at least three reading repeats to get accurate determinations of concentration values. For all ITC measurements, the temperature was set at 25 °C with stirring speed at 750 rev/min. The GlnBPs solution (10 μM in PBS buffer pH 7.4, 300 μL) was manually loaded into the sample cell. The titrant (L-glutamine, 100 μM in PBS buffer, pH 7.4) was automatically loaded into the titration syringe and injected in the sample cell with a titration speed of 2 μL every 150 s and a total of 19 injections. As a control experiment, L-glutamine was titrated into the sample cell containing PBS buffer without GlnBPs. All the titration data were analyzed using the MicroCal PEAQ-ITC Analysis Software.

GlnBP(111 C-192C) [3] = target: T2, GlnBP(111 C-192C) (Escherichia coli, UniProt P0AEQ3, G214C/V133C); experiment: Diffusion-based smFRET (µsALEX) ligand titration of doubly-labeled GlnBP(111C-192C); format: binding; settings: millimolar ligand, GlnBP(111C-192C) and GlnBP(59C-130C), AF555/AF647
T2 construct: made in house; host or cells: E. coli BL21-pLysS
T2 sequence (P0AEQ3 23-248 V133C/G214C): as the sequence (P0AEQ3 23-248 T81C/T152C) above, with C59T, V111C, C130T, G192C counted along it
Method: The refolded GlnBP(111 C-192C) and GlnBP(59 C-130C) variants were labeled with commercial maleimide derivatives of AF555/AF647 or ATTO 532/ATTO 643 ([Gebhardt et al., 2021]), and then purified by SEC. […] First, the His-tagged protein was incubated in 10 mM DTT in PBS buffer for 30 min to reduce all oxidized cysteine residues. Subsequently, the protein was diluted 10 times with PBS buffer and immobilized on a Nickel Sepharose 6 Fast Flow resin (GE Healthcare). The resin was washed extensively with milliQ water followed by PBS buffer pH 7.4. To remove the excess of DTT, the resin was washed with PBS buffer. […]
Single-molecule μsALEX experiments were carried out at room temperature on a custom-built confocal microscope. […] In general, the 532 and 640 nm diode lasers operated at 60 and 25 μW, respectively (measured at the back aperture of the objective), unless stated otherwise. Fluorescence light was collected by the same objective, focused onto a 50 μm pinhole and separated into two spectral channels (donor and acceptor fluorescence) by a dichroic beamsplitter (H643 LPXR, AHF, Germany). Fluorescence emission was collected by two avalanche photodiodes (SPCM-AQRH-64, Excelitas) after additional filtering (donor channel: BrightLine HC 582/75 and acceptor channel: Longpass 647 LP Edge Basic, both from Semrock, USA). […]

GlnBP(111 C-192C) [4] = target: T2, GlnBP(111 C-192C); experiment: ITC of ligand binding to refolded, unlabeled GlnBP(111C-192C)
Method: as §1

Structure (SMILES)	affinity (GlnBP [1]; L-glutamine, ref Pistolesi and Tjandra, 2012, Su et al., 2007)	effective on-rate constant (GlnBP [2])	Kd (GlnBP(59 C-130C))	ligand-induced FRET shift (conformational change) (GlnBP(111 C-192C) [3])	affinity (GlnBP [1]; arginine, ref Chen et al., 2020)	Kd (GlnBP(111 C-192C) [4])
NC(=O)CC[C@H](N)C(=O)O [L-glutamine]	sub-micromolar affinity	about 10^8 M^–1s^–1				
N=C(N)NCCC[C@H](N)C(=O)O [L-Arginine]			737 ± 133 µM	hardly any FRET shifts	millimolar affinity	421 ± 292 µM
